Source: patent US20230053688A1, “METHODS TO ALTER LATENCY IN EBV+ MALIGNANCIES” (Cornell University, priority 2020, published 2023)
Counter-ions that a name gives are not always drawn. Like-named read-outs stand apart in the source and are kept apart here.

Test system: LMP1 expression in Kem I cells
Assay: microbe, parasite or virus in culture
Assay type: cell-based, EBV
Conditions: for fold induction at 2.5 µM / fold induction at 1 µM: human gammaherpesvirus 4, 48 h; for Average LMP1 Fold Increase / Replicate 1-LMP1 Fold Increase / Replicate 2-LMP1 Fold Increase: Kem I cells, 2.5 uM, 48 hours; for Average LMP1 Fold Increase: average of replicates 1 and 2; for Replicate 1-LMP1 Fold Increase / Replicate 2-LMP1 Fold Increase: fold change in LMP1 transcript vs vehicle
[1] = read-out: Average LMP1 Fold Increase, Kem I cells, 2.5 uM, 48 hours, average of replicates 1 and 2
[2] = read-out: Replicate 1-LMP1 Fold Increase, Kem I cells, 2.5 uM, 48 hours, fold change in LMP1 transcript vs vehicle
[3] = read-out: Replicate 2-LMP1 Fold Increase, Kem I cells, 2.5 uM, 48 hours, fold change in LMP1 transcript vs vehicle

SMILES | fold induction at 2.5 µM [1] | fold induction at 2.5 µM [2] | fold induction at 2.5 µM [3] | Average LMP1 Fold Increase | Replicate 1-LMP1 Fold Increase | Replicate 2-LMP1 Fold Increase | other results
Cc1cc(OCc2nnc(SC3CCCC3)n2-c2cccnc2)ccc1-c1ccc(S(C)(=O)=O)cc1 [NMS-873] | 1 | 1.05 | 0.95 | – | – | – | –
CC(C)(Cc1ccc2ccccc2c1)NC[C@@H](O)COc1cccc(Cl)c1C#N [NPS-2143] | – | – | – | 0.74 | 0.87 | 0.62 | –
Cc1ccc(S(=O)(=O)c2ccc([N+](=O)[O-])o2)cc1 [NSC697923] | – | – | – | 0.09 | 0.10 | 0.09 | –
CCN(CC)CCCC(C)Nc1nc(C)cc(Nc2ccc3nc(C)cc(N)c3c2)n1 (stereo not drawn) [NSC 23766] | – | – | – | 0.82 | 0.62 | 1.01 | –
C/C(=N\NC(=S)N1CCC1)c1ccccn1 [NSC 319726] | – | – | – | 19.87 | 7.26 | 32.48 | –
CCCC(C)NC(=O)c1ccc(Cl)c(Cl)c1 (stereo not drawn) [NSC 405020] | – | – | – | 0.39 | 0.50 | 0.28 | –
O=c1cc(N2CCOCC2)oc2c1ccc1ccccc12 [NU7026] | – | – | – | 0.77 | 0.47 | 1.07 | –
Nc1ncnc2c1c(-c1cccc(OCc3ccccc3)c1)cn2C1CC(CN2CCCC2)C1 (stereo not drawn) [NVP-ADW742] | – | – | – | 0.40 | 0.27 | 0.53 | –
COc1ccccc1N1CCN(CC(O)COc2cccc3ccccc23)CC1 (stereo not drawn) [Naftopidil] | 1.15 | 1.36 | 0.95 | – | – | – | –
O=C1CC[C@@]2(O)[C@H]3Cc4ccc(O)c5c4[C@@]2(CCN3CC2CC2)[C@H]1O5 [Naltrexone HCl] | 0.27 | 0.34 | 0.19 | – | – | – | –
COc1ccc2cc([C@H](C)C(=O)O)ccc2c1 [Naproxen] | 0.62 | 0.69 | 0.56 | – | – | – | –
OC(CNCC(O)C1CCc2cc(F)ccc2O1)C1CCc2cc(F)ccc2O1 (stereo not drawn) [Nebivolol] | 1.16 | 0.83 | 1.49 | – | – | – | –
CN1C(=O)C(Cc2c[nH]c3ccccc23)NC1=S (stereo not drawn) [Necrostatin-1] | – | – | – | 1.08 | 0.99 | 1.17 | –
Cc1cn(-c2cc(NC(=O)c3ccc(C)c(Nc4nccc(-c5cccnc5)n4)c3)cc(C(F)(F)F)c2)cn1 [Nilotinib (AMN-107)] | – | – | – | 0.27 | 0.20 | 0.33 | –
COC(=O)C1=C(C#N)NC(C)=C(C(=O)OC(C)C)C1c1cccc([N+](=O)[O-])c1 (stereo not drawn) [Nilvadipine] | 0.72 | 0.96 | 0.47 | – | – | – | –
Cc1c(Cc2ccc3ccccc3n2)c2cc(F)ccc2n1CC(=O)O [OC000459] | 0.56 | 0.64 | 0.48 | – | – | – | –
C#Cc1cccc(Nc2ncnc3cc(OCCOC)c(OCCO)cc23)c1 [OSI-420] | – | – | – | 0.66 | 0.84 | 0.49 | –
C[C@]1(O)C[C@@H](c2nc(-c3ccc4ccc(-c5ccccc5)nc4c3)c3c(N)nccn32)C1 [OSI-906 (Linsitinib)] | – | – | – | 0.81 | 0.68 | 0.94 | –
NCC(=O)Nc1ccc(-n2nc(C(F)(F)F)cc2-c2ccc3c(ccc4ccccc43)c2)cc1 [OSU-03012 (AR-12)] | – | – | – | 0.95 | 0.79 | 1.12 | –
Cc1sc2c(c1C)C(c1ccc(Cl)cc1)=N[C@@H](CC(=O)Nc1ccc(O)cc1)c1nnc(C)n1-2 [OTX015] | 0.63 | 0.14 | 1.12 | – | – | – | –
COC1=CC(c2cc3ccccc3[nH]2)=N/C1=C\c1[nH]c(C)cc1C [Obatoclax] | – | – | – | – | – | – | fold induction at 1 µM (read-out: Average LMP1 Fold Increase, Kem I cells, 1 uM, 48 hours, average of replicates 1 and 2): 13.7; fold induction at 1 µM (read-out: Replicate 1-LMP1 Fold Increase, Kem I cells, 1 uM, 48 hours, fold change in LMP1 transcript vs vehicle): 24.3; fold induction at 1 µM (read-out: Replicate 2-LMP1 Fold Increase, Kem I cells, 1 uM, 48 hours, fold change in LMP1 transcript vs vehicle): 3.03
CC(C)(F)C[C@H](N[C@@H](c1ccc(-c2ccc(S(C)(=O)=O)cc2)cc1)C(F)(F)F)C(=O)NC1(C#N)CC1 [Odanacatib (MK-0822)] | – | – | – | 0.56 | 0.58 | 0.54 | –
CC[C@@H]1/C=C/C=C/C[C@H](C)[C@H](O)[C@](C)(O)C(=O)[C@H](C)[C@@H](O)[C@H](C)C(=O)[C@H](C)[C@@H](O)[C@H](C)/C=C/C(=O)O[C@H]2[C@@H](C)[C@@H](CC1)O[C@@]1(CC[C@@H](C)[C@@H](C[C@H](C)O)O1)[C@@H]2C [Oligomycin A] | – | – | – | 1.40 | 1.03 | 1.76 | –

SMILES | fold induction at 2.5 µM [1] | fold induction at 2.5 µM [2] | fold induction at 2.5 µM [3] | Average LMP1 Fold Increase | Replicate 1-LMP1 Fold Increase | Replicate 2-LMP1 Fold Increase | other results
CCc1c(C(=O)NCCc2ccc(N3CCCCC3)cc2)[nH]c2ccc(Cl)cc12 [Org 27569] | – | – | – | 0.51 | 0.49 | 0.53 | –
C[C@@H]1O[C@@H](O[C@H]2C[C@@H](O)[C@]3(CO)[C@H]4[C@H](O)C[C@]5(C)[C@@H](C6=CC(=O)OC6)CC[C@]5(O)[C@@H]4CC[C@]3(O)C2)[C@H](O)[C@H](O)[C@H]1O [Ouabain] | 92.1 | 22.8 | 161 | – | – | – | –
NC(=O)N1c2ccccc2CC(=O)c2ccccc21 [Oxcarbazepine] | 0.46 | 0.54 | 0.38 | – | – | – | –
Cc1cc(C(C)(C)C)c(O)c(C)c1CC1=NCCN1 [Oxymetazoline HCl] | 0.66 | 0.6 | 0.72 | – | – | – | –
O=C(O)/C=C/c1ccc(Cn2ccnc2)cc1 [Ozagrel HCl] | – | – | – | 0.79 | 0.85 | 0.72 | –
O=C(O)/C=C/c1ccc(Cn2ccnc2)cc1 [Ozagrel] | 1.41 | 1.27 | – | – | – | 1.55 | –
CC(=O)c1cc([N+](=O)[O-])c(Sc2ccc(F)cc2F)s1 [P22077] | – | – | – | 0.25 | 0.20 | 0.29 | –
C=CCc1cccc(/C=N/NC(=O)CN2CCN(Cc3ccccc3)CC2)c1O [PAC-1] | – | – | – | 0.78 | 0.78 | 0.78 | –
O=C(NOCC1CC1)c1ccc(F)c(F)c1Nc1ccc(I)cc1Cl [PD184352 (CI-1040)] | – | – | – | 0.66 | 0.65 | 0.66 | –
O=C(NOC[C@H](O)CO)c1ccc(F)c(F)c1Nc1ccc(I)cc1F [PD0325901] | 0.47 | 0.68 | 0.27 | – | – | – | –
O=C(Nc1cccnc1)N1CCC(Cc2cccc(Oc3ccc(C(F)(F)F)cn3)c2)CC1 [PF-3845] | – | – | – | 0.32 | 0.16 | 0.48 | –
CN(c1ncccc1CNc1nc(Nc2ccc3c(c2)CC(=O)N3)ncc1C(F)(F)F)S(C)(=O)=O [PF-562271] | – | – | – | 0.50 | 0.81 | 0.19 | –
CS(=O)(=O)c1cccc(CNc2nc(Nc3ccc4c(c3)CCC(=O)N4)ncc2C(F)(F)F)c1 [PF-573228] | – | – | – | 0.66 | 0.87 | 0.45 | –
OCCn1cc(-c2cnc3nnn(Cc4ccc5ncccc5c4)c3n2)cn1 [PF-04217903] | – | – | – | 1.03 | 0.96 | 1.11 | –
CCc1cncnc1N1CCN(Cc2nc3ccc(C(F)(F)F)cc3[nH]2)CC1 [PF-4708671] | – | – | – | 0.74 | 1.30 | 0.18 | –
Cc1cnc(-c2cc(N3CCN(C(=O)CCS(C)(=O)=O)CC3)ncc2Cl)c(C)c1 [PF-5274857] | – | – | – | 0.87 | 1.12 | 0.62 | –
COc1ccccc1S(=O)(=O)Nc1ccc2c(c1)CN(C)C(=O)N2 [PFI-1 (PF-6405761)] | – | – | – | 0.78 | 0.42 | 1.15 | –
Cc1[nH]c(/C=C2\C(=O)Nc3ccc(S(=O)(=O)Cc4c(Cl)cccc4Cl)cc32)c(C)c1C(=O)N1CCC[C@@H]1CN1CCCC1 [PHA-665752] | 0.69 | 0.55 | 0.84 | – | – | – | –
CC(C)CC(=O)Nc1[nH]nc2c1CN(C(=O)C1CCN(C)CC1)C2(C)C [PHA-793887] | 2.82 | 0.58 | 5.05 | – | – | – | –
COc1cc(OC)c(NC(=O)Nc2cc(C)on2)cc1Cl [PNU-120596] | – | – | – | 0.30 | 0.17 | 0.44 | –
CC(C)(C)n1nc(-c2ccc(Cl)cc2)c2c(N)ncnc21 [PP2] | – | – | – | 1.01 | 0.73 | 1.28 | –
N#CSc1cc(SC#N)c(N)nc1N [PR-619] | – | – | – | 0.31 | 0.23 | 0.39 | –
